Read-outs that look alike come from different tables or passages of the source.
Legend:
[1] = biological target: T1, type 2 IP3R from nuclei of HepG2 cells (Homo sapiens, UniProt Q14571); experiment: Planar lipid bilayer single channel recording of native type 2 IP3R; format: biochemical
T1 construct: biophysical properties of native type 2 IP3R isolated from cells; endogenous in cells; host or cells: HepG2 cells, nuclei / nuclear envelope membranes
Source text: Electrophysiological recording of ICCs is a well established technique used to measure the effects on calcium levels based on external stimuli (83, 115-117). The planar lipid bilayer technique has been used by the principal investigator to determine the function of ICCs in neurons and non-neuronal cells. The inventors isolated type 2 IP3R from nuclei of HepG2 cells using the same techniques described herein. These studies represent the first determination of the biophysical properties of native type 2 IP3R isolated from cells. All previous studies on type 2 IP3R used artificially expressed type 2 IP3R of cells that had been transfected with the respective cDNA (118-119). Single channel activity was examined using the Planar Lipid Bilayer Membrane technique. […] The lack of feedback inhibition by high concentrations of Ca^2+ is again similar to what has been observed in the recombinant type 2 IP3R (118, 121). […] Both the increased sensitivity to IP3 and the lack of Ca2+-induced inactivation distinguishes the type 2 IP3R from the well-characterized type 1 IP3R. By isolating the receptor with its associated proteins from a functional cellular environment, properties influenced by accessory proteins can be readily assessed with single channel electrophysiology. Data obtained from these experiments analyzing the single channel characteristics of ICCs will provide the biophysical information necessary to correlate intracellular signaling data with function in live cells and in vivo, as shown hereinbelow.
Planar lipid bilayer single channel electrophysiology. ER vesicles or artificial liposomes containing ICCs may be incorporated into planar lipid bilayers and channel activity may be recorded electrophysiologically with the planar lipid bilayer being equivalent to the plasma membrane patch of patch clamp electrophysiology. […] Proper insertion of the ICCs may be monitored by appropriate stimulation of channels on the cytosolic side (IP3R: Ca^2+, IP3; RyR: Ca^2+, caffeine, cADPR; pc-2: Ca^2+, activating membrane potential; 77, 83, 115-117, 141). […] Channel insertion and activity may be recorded with Ag/AgCl electrodes contacting the buffer filled compartments via KCl containing agarose bridges. Activity of a single channel protein can be monitored because it passes enough current to be measured electronically using an amplifier. […] Single channel conductance, voltage-dependence, dwell times and dependence on intracellular free Ca^2+ concentrations may be determined using standard methods in the presence of blockers of other ICCs (IP3R: no IP3, heparin; RyR: ryanodine, ruthenium red; pc-2: lack of activating membrane potential; 77, 83). […]

type 1 IP3R = type 1 IP3R (Homo sapiens, UniProt Q14643); details: read-out: half maximal activation by IP3; cited from earlier work
recombinant type 2 IP3R = recombinant type 2 IP3R (Homo sapiens, UniProt Q14571); details: read-out: EC50-value for IP3; cited from earlier work
type 2 RyR = biological target: T2, type 2 RyR (Mus musculus, UniProt E9Q401); experiment: Planar lipid bilayer single channel recording of RyR2; format: biochemical
T2 construct: First, type 2 RyR were isolated from mouse; from tissue; host or cells: mouse
Experimental: NAEs differentially regulate the activity of ICCs. First, type 2 RyR were isolated from mouse. Briefly, single channel activity was examined using the Planar Lipid Bilayer Membrane technique. […] Channel activity was initiated by cytosolic Ca^2+ concentrations of 10 nM and higher.
(§1) Next, the effect of NAE 12:0 on mouse RyRs was determined. NAE 12:0 dose-dependently and isoform-specifically regulated the function of RyRs and represent the first pharmacological tool to differentially manipulate individual intracellular calcium channel isoforms (FIG. 5). […] Measured at sub-maximally activating Ca^2+ concentrations (RyR type I: pCa 6; RyR type II: pCa 6.5) 500 nM NAE 12:0 increased RyR type I activity by 42% whereas the same concentration decreased RyR type II activity by 64% (FIG. 5).
Planar lipid bilayer single channel electrophysiology. ER vesicles or artificial liposomes containing ICCs may be incorporated into planar lipid bilayers and channel activity may be recorded electrophysiologically with the planar lipid bilayer being equivalent to the plasma membrane patch of patch clamp electrophysiology. Lipid bilayer membranes may be formed in a hole in a Teflon partition, which separates two buffer filled compartments (phosphatidylethanolamine and phosphatidylserine, 3:1 w/w, dissolved in decane, 40 mg lipid per ml, Avanti Polar Lipids, Alabaster, Ala.). Vesicles containing pc-2 may be added to one compartment (corresponding to the cytosolic compartment) and fuse with the bilayer leaving the channels contained in the vesicle as the only electrical connection between the two compartments. The buffer on the cytosolic side of the channel is a 250 mM HEPES-Tris solution, pH 7.35 and a 250 mM HEPES, 55 mM Ba(OH)2 (or defined concentration of other current carrier, such as Ca(OH)2 or Mg(OH)2) solution, pH 7.35 constitutes the buffer on the trans side of the bilayer. Proper insertion of the ICCs may be monitored by appropriate stimulation of channels on the cytosolic side (IP3R: Ca^2+, IP3; RyR: Ca^2+, caffeine, cADPR; pc-2: Ca^2+, activating membrane potential; 77, 83, 115-117, 141). Improperly inserted channels that are less than 5% under the described conditions will not be included in the analysis. Channel insertion and activity may be recorded with Ag/AgCl electrodes contacting the buffer filled compartments via KCl containing agarose bridges. Activity of a single channel protein can be monitored because it passes enough current to be measured electronically using an amplifier. Altering the divalent cation species on the luminal side of the channel that carries the current will test ion selectivity. Single channel conductance, voltage-dependence, dwell times and dependence on intracellular free Ca^2+ concentrations may be determined using standard methods in the presence of blockers of other ICCs (IP3R: no IP3, heparin; RyR: ryanodine, ruthenium red; pc-2: lack of activating membrane potential; 77, 83). Modulating reagents may be added to the cytosolic side of the protein using a perfusion system (77, 83).

rats and mice = details: transient ischemia with reperfusion and permanent occlusion; cited from earlier work
IP3R = experiment: Western blot of phosphothreonine on IP3R in retina tissue in vitro; format: cell-based, mouse; details: 100 nM, 60 min, vs vehicle control
Source text: Chemo-luminescence-enhanced Western blotting as a sensitive method to evaluate changes in intracellular signaling. A crucial factor in the determination of signaling proteins mediating neuroprotection is the specificity of reagents used for immunolocalization. As disclosed herein, a number of antibodies identified and characterized (Tables 1 and 2) and the conditions that allow full identification of signaling proteins mediating NAE responses through NAEs in neurons provided. Using the sensitive chemo-luminescence-enhanced Western blotting technique, changes were detected in signaling protein composition. Furthermore, immunodetection methods allow an analysis of the changes in the phosphorylation status of signaling proteins in experiments assessing the neuroprotective functions of NAEs. The high temporal and quantitative sensitivity of the assay system may be especially useful in our in vitro and in vivo model systems of neurotoxicity which will measure small but functionally relevant initial changes associated with neuronal damage. In additional studies, the effects of lipophilic hormones on the phosphorylation status of intracellular calcium channels was determined. […]
The high temporal and quantitative sensitivity of the assay system may be especially useful in our model systems which will produce functionally relevant initial changes associated with neuronal damage.

RyR type I = biological target: T3, RyR type I (Mus musculus, UniProt E9PZQ0); experiment: Planar lipid bilayer single channel recording of RyR type I; format: biochemical
T3 construct: from tissue; host or cells: mouse
Experimental: as §1
Planar lipid bilayer single channel electrophysiology. ER vesicles or artificial liposomes containing ICCs may be incorporated into planar lipid bilayers and channel activity may be recorded electrophysiologically with the planar lipid bilayer being equivalent to the plasma membrane patch of patch clamp electrophysiology. […] Proper insertion of the ICCs may be monitored by appropriate stimulation of channels on the cytosolic side (IP3R: Ca^2+, IP3; RyR: Ca^2+, caffeine, cADPR; pc-2: Ca^2+, activating membrane potential; 77, 83, 115-117, 141). […] Channel insertion and activity may be recorded with Ag/AgCl electrodes contacting the buffer filled compartments via KCl containing agarose bridges. Activity of a single channel protein can be monitored because it passes enough current to be measured electronically using an amplifier. […]

HT22 neurons = experiment: Neuroprotection from L-glutamate toxicity (oxidative stress); format: cell-based
Experimental: NAE protects neurons in vitro from oxidative stress and glutamate toxicity. Next, the neuroprotective potential effects of NAEs were determined by culturing an immortalized hippocampal neuron cell line, HT 22, a model system used extensively. […] The mechanism of neurotoxicity is depletion of intracellular glutathione stores by inhibition of the cysteine transport and subsequently of glutathione synthesis.
The following assays may be used to assess neuronal viability and different stages of cell death. Optical assessment._Changes in cell morphology (apoptotic and necrotic morphology) and cell number may be used as an initial assessment of neurotoxicity and neuroprotection (see preliminary results in FIG. 8) using bright field differential interference contrast microscopy (Olympus IX-70, Olympus Corp., Japan; SimplePCI, C-imaging systems, Compix, Inc.).

[2] = tested on: primary cultures of hippocampal neurons; experiment: Ca2+ imaging of L-glutamate induced Ca2+ transients (fluo-3); format: cell-based; details: 100 μM, 30 min preincubation, 100 μM L-Glutamate stimulus
Experimental: Both single wavelength (high sensitivity) and ratiometric (quantitative analysis) fluorescent Ca^2+ indicator dyes may be used. Various parameters may be studies, such as substrate adherence, dye concentration, and culture conditions, have been optimized for measuring acutely isolated neurons as well as neuronal cell lines, as will be known to the skilled artisan. NAEs influence intracellular Ca2+ homeostasis. Next, studies were conducted using primary cultures of hippocampal neurons to determine the effects of NAEs on intracellular Ca^2+ signaling. In these studies, the influence of a bath-based application of NAE 16:0 on intracellular Ca^2+ signaling of primary hippocampal neurons was analyzed. Hippocampal neurons like most other CNS neurons express RyR isoform 2. Some neurons also express RyR3 and RyR1 is found predominantly in glial cells.
FIGS. 6A to 6E demonsatrate the effect of NAEs on primary isolated and cultured hippocampal neurons were exposed to 100 μM L-Glutamate. FIG. 6A show the DIC image of a neuron and the fluorescence of the calcium indicator dye fluo-3 in the same cell at resting levels (FIG. 6B) and after L-Glutamate stimulation (FIG. 6C; scale bar: 25 μm). […] When the hippocampal neurons were stimulated with L-glutamate, this triggers an influx of extracellular Ca^2+ and a prolonged release of Ca^2+ from intracellular stores (FIG. 6D). […]

[3] = tested on: ovariectomized (OVX) rats; experiment: Middle cerebral artery occlusion, cerebral ischemia-reperfusion injury; format: in vivo
Akt = details: primary hippocampal neurons, 100 μM, 60 min, total Akt unchanged
Experimental: Western Blot Analysis. Cells may be lysed in lysis buffer (50 mM Tris (pH 7.4), 150 mM NaCl, 10% glycerol, 1 mM EGTA, 1 mM Na3VO4, 5 μM ZnCl2, 100 mM NaF, 1% Triton X-100, 10 μg/ml aprotinin, 1 μg/ml leupeptin, and 1 mM PMSF) and snap frozen in liquid nitrogen. Following homogenization, by trituration of the cells through a 22 Ga needle, and centrifugation at 100,000×g for 15 min at 4° C., resulting supernatants (lysates) are normalized for protein content (Lowry Assay, Biorad DC Protein Assay Kit). 25 mg of protein from each sample will then be separated on a 10% polyacrylamide gel (SDS/PAGE) followed by transfer onto PVDF membranes (0.22 mm pore size, Biorad, Hercules, Calif.). The membranes are then blocked overnight with 3% BSA (Fraction V; Sigma) or in Tris-buffered saline containing 0.2% Tween-20 (TBS-T) and probed with the appropriate antibody. […] For Akt phosphorylation, rabbit anti-phosphoAkt (Ser473) or rabbit anti-phosphoAkt(Thr308) (Cell Signaling Technology); for Akt protein assessment, rabbit anti-Akt (New England Biolabs). Binding of the primary antibody to the membrane may be detected using a secondary antibody (either goat anti-rabbit or goat anti-mouse), conjugated to horseradish peroxidase (HRP; 1:40,000, Pierce, Rockford, Ill.) and visualized using enzyme-linked chemiluminescence (ECL; Amersham, Arlington Heights, Ill.). […]

T2 sequence (E9Q401 whole entry): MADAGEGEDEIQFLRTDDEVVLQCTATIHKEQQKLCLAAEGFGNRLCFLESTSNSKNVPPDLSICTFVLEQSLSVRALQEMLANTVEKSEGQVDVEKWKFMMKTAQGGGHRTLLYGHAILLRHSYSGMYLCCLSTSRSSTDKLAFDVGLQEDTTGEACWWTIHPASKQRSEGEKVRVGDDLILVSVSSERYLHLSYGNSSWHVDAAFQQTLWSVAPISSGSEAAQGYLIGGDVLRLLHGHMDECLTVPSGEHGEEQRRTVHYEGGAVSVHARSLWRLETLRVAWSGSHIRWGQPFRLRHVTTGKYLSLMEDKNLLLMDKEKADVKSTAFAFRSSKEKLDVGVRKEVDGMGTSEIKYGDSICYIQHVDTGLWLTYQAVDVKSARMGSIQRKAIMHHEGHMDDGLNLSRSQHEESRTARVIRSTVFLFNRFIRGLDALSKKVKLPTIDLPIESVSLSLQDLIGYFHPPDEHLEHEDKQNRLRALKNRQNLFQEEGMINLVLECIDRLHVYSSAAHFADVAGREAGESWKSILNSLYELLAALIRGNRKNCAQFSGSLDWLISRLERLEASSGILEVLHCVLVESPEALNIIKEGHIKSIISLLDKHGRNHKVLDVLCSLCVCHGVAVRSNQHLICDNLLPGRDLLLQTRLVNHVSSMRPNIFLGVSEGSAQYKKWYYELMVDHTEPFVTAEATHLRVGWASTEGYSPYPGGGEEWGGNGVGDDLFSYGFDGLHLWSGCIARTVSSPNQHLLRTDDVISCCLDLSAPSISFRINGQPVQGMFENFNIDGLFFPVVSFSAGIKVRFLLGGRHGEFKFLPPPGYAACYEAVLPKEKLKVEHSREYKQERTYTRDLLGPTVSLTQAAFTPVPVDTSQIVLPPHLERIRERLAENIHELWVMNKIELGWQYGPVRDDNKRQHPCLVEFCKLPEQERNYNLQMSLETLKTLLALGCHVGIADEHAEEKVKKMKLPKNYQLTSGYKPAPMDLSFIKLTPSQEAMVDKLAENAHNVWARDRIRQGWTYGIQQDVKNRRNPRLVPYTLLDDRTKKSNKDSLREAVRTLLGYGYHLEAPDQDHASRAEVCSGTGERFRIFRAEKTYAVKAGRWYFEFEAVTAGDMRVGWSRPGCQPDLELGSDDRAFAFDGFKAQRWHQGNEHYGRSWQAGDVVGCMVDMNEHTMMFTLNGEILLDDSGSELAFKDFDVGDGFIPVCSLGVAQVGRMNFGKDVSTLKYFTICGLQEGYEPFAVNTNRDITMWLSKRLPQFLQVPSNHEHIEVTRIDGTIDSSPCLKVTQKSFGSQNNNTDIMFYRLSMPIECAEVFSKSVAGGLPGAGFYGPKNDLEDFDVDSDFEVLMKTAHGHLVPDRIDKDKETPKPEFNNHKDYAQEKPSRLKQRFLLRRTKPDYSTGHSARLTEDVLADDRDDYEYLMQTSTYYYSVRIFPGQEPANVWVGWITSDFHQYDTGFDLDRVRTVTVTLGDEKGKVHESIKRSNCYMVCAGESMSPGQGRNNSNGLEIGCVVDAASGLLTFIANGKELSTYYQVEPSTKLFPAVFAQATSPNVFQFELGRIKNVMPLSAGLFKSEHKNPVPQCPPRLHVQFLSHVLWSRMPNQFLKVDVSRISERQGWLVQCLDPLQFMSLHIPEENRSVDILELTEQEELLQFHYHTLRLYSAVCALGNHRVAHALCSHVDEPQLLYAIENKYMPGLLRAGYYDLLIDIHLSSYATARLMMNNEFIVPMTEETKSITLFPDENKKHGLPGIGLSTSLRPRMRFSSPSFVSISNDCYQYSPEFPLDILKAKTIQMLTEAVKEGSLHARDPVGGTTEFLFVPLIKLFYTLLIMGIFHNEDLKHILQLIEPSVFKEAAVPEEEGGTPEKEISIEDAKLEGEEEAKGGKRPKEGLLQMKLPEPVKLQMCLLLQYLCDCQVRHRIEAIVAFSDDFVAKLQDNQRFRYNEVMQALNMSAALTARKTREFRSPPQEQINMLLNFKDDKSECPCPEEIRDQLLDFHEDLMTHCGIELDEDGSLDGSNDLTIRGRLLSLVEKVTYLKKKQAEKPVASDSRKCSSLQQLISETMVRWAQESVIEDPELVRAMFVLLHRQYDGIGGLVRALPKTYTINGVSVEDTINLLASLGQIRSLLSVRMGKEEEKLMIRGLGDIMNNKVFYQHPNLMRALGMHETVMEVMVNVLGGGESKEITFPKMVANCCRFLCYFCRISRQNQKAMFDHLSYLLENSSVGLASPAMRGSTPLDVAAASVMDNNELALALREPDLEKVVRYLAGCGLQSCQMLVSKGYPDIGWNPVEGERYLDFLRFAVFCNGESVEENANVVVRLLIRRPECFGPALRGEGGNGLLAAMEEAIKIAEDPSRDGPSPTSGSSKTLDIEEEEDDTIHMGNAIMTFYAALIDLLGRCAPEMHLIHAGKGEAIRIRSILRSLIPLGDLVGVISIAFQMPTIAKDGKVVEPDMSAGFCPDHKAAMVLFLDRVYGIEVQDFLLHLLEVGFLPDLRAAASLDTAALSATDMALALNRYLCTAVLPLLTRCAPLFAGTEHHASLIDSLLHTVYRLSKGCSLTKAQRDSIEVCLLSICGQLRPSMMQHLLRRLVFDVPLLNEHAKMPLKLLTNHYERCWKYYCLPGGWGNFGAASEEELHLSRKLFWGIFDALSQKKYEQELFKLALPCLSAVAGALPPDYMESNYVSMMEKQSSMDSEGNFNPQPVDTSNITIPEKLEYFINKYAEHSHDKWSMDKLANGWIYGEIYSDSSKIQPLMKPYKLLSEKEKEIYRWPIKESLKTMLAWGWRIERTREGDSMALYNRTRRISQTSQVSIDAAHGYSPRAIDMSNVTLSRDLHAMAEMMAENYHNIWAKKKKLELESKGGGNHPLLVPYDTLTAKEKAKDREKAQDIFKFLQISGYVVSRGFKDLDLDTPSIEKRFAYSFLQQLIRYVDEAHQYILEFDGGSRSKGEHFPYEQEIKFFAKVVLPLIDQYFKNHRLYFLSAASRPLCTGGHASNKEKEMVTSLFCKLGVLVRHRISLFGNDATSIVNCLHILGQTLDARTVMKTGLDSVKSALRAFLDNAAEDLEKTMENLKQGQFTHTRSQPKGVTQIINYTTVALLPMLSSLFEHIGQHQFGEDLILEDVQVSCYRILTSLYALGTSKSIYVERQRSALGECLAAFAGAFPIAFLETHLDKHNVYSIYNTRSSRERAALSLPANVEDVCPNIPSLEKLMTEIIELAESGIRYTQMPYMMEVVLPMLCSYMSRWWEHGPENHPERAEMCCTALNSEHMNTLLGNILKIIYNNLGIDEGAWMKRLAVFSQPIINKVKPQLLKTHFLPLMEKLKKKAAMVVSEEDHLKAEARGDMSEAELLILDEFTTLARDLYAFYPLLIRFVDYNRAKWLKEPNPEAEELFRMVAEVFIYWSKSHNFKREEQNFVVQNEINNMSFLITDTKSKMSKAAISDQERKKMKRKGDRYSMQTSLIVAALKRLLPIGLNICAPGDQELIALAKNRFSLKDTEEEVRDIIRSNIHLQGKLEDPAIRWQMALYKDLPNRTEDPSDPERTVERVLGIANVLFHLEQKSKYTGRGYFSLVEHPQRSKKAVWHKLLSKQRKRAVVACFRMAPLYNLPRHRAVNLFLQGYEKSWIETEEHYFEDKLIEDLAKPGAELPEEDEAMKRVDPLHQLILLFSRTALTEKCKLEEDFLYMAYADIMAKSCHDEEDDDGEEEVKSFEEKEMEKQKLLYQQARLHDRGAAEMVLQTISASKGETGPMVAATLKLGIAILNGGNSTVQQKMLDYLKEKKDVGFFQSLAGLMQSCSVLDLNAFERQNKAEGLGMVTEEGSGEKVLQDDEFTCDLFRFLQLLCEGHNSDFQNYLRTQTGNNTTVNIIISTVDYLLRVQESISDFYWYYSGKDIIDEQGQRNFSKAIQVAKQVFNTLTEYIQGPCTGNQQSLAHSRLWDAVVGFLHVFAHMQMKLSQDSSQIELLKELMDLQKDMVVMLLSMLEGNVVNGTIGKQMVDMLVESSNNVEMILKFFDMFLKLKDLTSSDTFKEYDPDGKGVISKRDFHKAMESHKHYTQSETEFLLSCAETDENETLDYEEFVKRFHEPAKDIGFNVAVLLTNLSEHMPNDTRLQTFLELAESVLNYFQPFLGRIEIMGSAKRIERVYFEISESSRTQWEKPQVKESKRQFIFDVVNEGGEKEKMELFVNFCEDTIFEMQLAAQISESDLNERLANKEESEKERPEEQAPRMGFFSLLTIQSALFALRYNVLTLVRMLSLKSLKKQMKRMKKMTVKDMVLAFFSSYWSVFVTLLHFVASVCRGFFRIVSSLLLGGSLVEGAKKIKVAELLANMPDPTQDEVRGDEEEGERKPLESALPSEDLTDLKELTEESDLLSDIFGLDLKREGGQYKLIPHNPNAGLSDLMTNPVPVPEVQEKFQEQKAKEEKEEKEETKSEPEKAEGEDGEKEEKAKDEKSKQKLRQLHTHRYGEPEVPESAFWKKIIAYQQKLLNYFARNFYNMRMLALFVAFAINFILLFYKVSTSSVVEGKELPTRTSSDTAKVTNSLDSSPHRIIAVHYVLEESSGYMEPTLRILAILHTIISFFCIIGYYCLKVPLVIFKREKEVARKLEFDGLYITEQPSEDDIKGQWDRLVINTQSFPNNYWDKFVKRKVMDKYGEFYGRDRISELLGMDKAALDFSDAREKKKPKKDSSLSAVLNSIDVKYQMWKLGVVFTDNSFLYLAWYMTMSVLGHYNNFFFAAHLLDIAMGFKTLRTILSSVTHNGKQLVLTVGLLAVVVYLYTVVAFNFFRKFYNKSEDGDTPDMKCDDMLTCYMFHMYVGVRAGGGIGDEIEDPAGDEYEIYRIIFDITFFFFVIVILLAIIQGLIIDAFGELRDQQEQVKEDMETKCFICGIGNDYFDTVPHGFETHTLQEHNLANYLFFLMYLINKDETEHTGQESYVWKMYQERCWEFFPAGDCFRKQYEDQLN

## O=P(O)(O)O[C@@H]1[C@H](O)[C@H](O)[C@@H](OP(=O)(O)O)[C@H](OP(=O)(O)O)[C@H]1O [IP3, inositol 1,4,5-trisphosphate]
[1]
  cytosolic IP3 concentration that initiates channel activity: ≥ 10 nM
[1]; native channel, data not shown, read-out: half maximal activation, dependence on cytosolic IP3 concentration
  EC50: 64 nM
Type 1 IP3R
  EC50: 500 nM
Recombinant type 2 IP3R
  EC50: 58 nM

## heparin
[1]; heparin 50 μg/ml
  block of channel activity: blocked

## N.N.N.N.N.N.N.N.N.N.N.N.N.N.[Cl-].[Cl-].[Cl-].[Cl-].[Cl-].[Cl-].[O-2].[O-2].[Ru+3].[Ru+3].[Ru+4] [ruthenium red, reference compound]
Type 2 RyR; ruthenium red 20 μM
  block of channel activity: blocked

## C[C@]12CC[C@@H]3c4ccc(O)cc4CC[C@H]3[C@@H]1CC[C@@H]2O [17β-estradiol]
Rats and mice
  protection: > 50%

## CC(=O)[C@H]1CC[C@H]2[C@@H]3CCC4=CC(=O)CC[C@]4(C)[C@H]3CC[C@]12C [progesterone]
IP3R
  phosphothreonine immunoreactivity on the IP3R: increase

## calmodulin
[1]; excess amounts, preliminary experiments
  effect on lack of Ca2+ inhibition of the channel: did not change this behavior

## CCCCCCCCCCCC(=O)NCCO [NAE 12:0]
Type 2 RyR; 500 nM, pCa 6.5, n=3, FIG. 5
  decrease of RyR type II activity: 64%
Type 2 RyR; RyR 2
  change of single channel conductance and amplitude: Neither NAE 12:0 nor NAE 18:2 changed
RyR type I; 500 nM, pCa 6, n=3, FIG. 5
  increase of RyR type I activity: 42%
RyR type I; RyR 1
  change of single channel conductance and amplitude: Neither NAE 12:0 nor NAE 18:2 changed
HT22 neurons
  protection from L-glutamate toxicity: dose-dependently protects
HT22 neurons; HT-22 cells, even at high concentrations, no L-glutamate
  effect of NAE alone on neuronal viability: no effect
HT22 neurons; in the presence of the NAE
  number of dead cells after L-glutamate insult: significantly reduced

## CCCCCCCCCCCCCCCC(=O)NCCO [NAE 16:0]
Type 2 RyR; 0.1 μM
  channel open frequency: reduced significantly
  channel open probability: reduction
  dwell time: reduced significantly
Type 2 RyR; higher, micromolar concentrations, FIG. 4
  channel activity at higher concentrations: almost complete block
Type 2 RyR; in presence of NAE 16:0
  single channel amplitude (not affected): 3.9±0.1 pA
  single channel conductance (not affected): 110±8 pS
Type 2 RyR; pCa 6, n=3, FIG. 4
  RyR2 channel activity: dose-dependently decreased
[2]
  amplitude of Ca2+ transients: significantly decreased
  duration of Ca2+ transients: significantly decreased
HT22 neurons
  effect of NAE alone on neuronal viability: no effect
HT22 neurons; FIG. 10 vs FIG. 9
  potency in neuroprotection, comparison: higher potency in neuroprotection than NAE 12:0
[3]; 10 mg/kg sc, 1 hr MCAO, 24 hr reperfusion, N=7/group, P<0.05 vs OVX
  protection of cerebral cortex and basal ganglia (infarct volume, TTC): protected
[3]; acute (sc 6 h prior and immediately before MCAO, 10 mg/kg) and chronic (1 day prior) regimen
  protection of CNS tissue from MCA occlusion-induced ischemic damage: effectively protected
Akt
  phosphorylated/active Akt: significant increase

Source: patent US20060142395A1, “Modulation of intracellular calcium signaling by N-acylethanolamines” (University of North Texas Health Science Center, priority 2003, published 2006)
